In the supplement of paper PMC10307832:

Each cell line was assayed with C1CSC2=C(C(=O)N1)SC3=C2C=C(C=C3)O [kb NB 142-70] + CS(=O)(=O)CCNCc1ccc(-c2ccc3ncnc(Nc4ccc(OCc5cccc(F)c5)c(Cl)c4)c3c2)o1 [Lapatinib] (partner 2 µM) (assay: relative viability (nuclei count vs DMSO), 5 days (fraction); higher = more cells survive). Details: first compound 0.1 µM.
Procedure, shortened: (§1)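 Relative viability is defined as nuclei in treated wells over nuclei in vehicle wells. Duplicate plates were run and medians reported. Lung cancer cell lines in 1536-well plates were dosed by pin tool one day after seeding, with one drug or with a fixed anchor-drug dose plus five library-drug doses (not always all listed) in √10 steps, and nuclei were counted after 5 days.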
Cell Line NCI-H727 has a relative viability of 0.808.
NCI-H1650 was tested, and the relative viability was 0.874.
Work on EBC-1 yielded a relative viability of 0.233.
Work on NCI-H1703 yielded a relative viability of 1.1.
NCI-H1993 was tested, and the relative viability was 0.71.
For SW 1573, the relative viability was 1.03.
Work on NCI-H838 yielded a relative viability of 0.934.
With NCI-H520 the relative viability was 0.826.
For NCI-H2126, the relative viability was 0.818.
With EMC-BAC-2 the relative viability was 0.942.
Cell Line NCI-H2085 has a relative viability of 0.764.
Cell Line Calu-6 has a relative viability of 1.07.
Cell Line HCC-366 has a relative viability of 1.06.
Work on NCI-H1666 yielded a relative viability of 0.637.
NCI-H596 showed a relative viability of 1.02.
In the case of LK-2, the relative viability is reported as 0.802.
With NCI-H2087 the relative viability was 0.935.
With SK-MES-1 the relative viability was 0.448.
H3255 showed a relative viability of 0.271.
In the case of COR-L23, the relative viability is reported as 0.972.
COR-L 105 gave a relative viability of 0.382.
IA-LM showed a relative viability of 0.771.
LOU-NH91 showed a relative viability of 0.724.
NCI-H2170 showed a relative viability of 0.295.
NCI-H2405 showed a relative viability of 1.11.
HOP-62 was tested, and the relative viability was 1.07.
In the case of HCC-44, the relative viability is reported as 1.02.
Cell Line A549 has a relative viability of 0.979.
LU99A showed a relative viability of 0.977.
BEN showed a relative viability of 0.731.
HARA showed a relative viability of 0.943.
HCC-78 was tested, and the relative viability was 0.919.
Cell Line NCI-H1395 has a relative viability of 1.23.
NCI-H1299 gave a relative viability of 0.919.
Work on NCI-H1793 yielded a relative viability of 0.57.
NCI-H1563 showed a relative viability of 0.969.

Same assay, conditions: first compound 1 µM
NCI-H727 showed a relative viability of 1.03.
With NCI-H1650 the relative viability was 0.88.
In the case of EBC-1, the relative viability is reported as 0.211.
In the case of NCI-H1703, the relative viability is reported as 1.08.
Cell Line NCI-H1993 has a relative viability of 0.765.
For SW 1573, the relative viability was 0.877.
NCI-H838 gave a relative viability of 0.913.
NCI-H520 gave a relative viability of 0.848.
With NCI-H2126 the relative viability was 0.739.
Work on EMC-BAC-2 yielded a relative viability of 0.898.
Work on NCI-H2085 yielded a relative viability of 0.727.
For Calu-6, the relative viability was 0.972.
HCC-366 showed a relative viability of 0.926.
NCI-H1666 showed a relative viability of 0.598.
NCI-H596 was tested, and the relative viability was 0.931.
LK-2 was tested, and the relative viability was 0.734.
NCI-H2087 showed a relative viability of 1.22.
Cell Line SK-MES-1 has a relative viability of 0.503.
H3255 gave a relative viability of 0.195.
With COR-L23 the relative viability was 1.
With COR-L 105 the relative viability was 0.427.
With IA-LM the relative viability was 0.95.
In the case of LOU-NH91, the relative viability is reported as 0.73.
With NCI-H2170 the relative viability was 0.305.
Work on NCI-H2405 yielded a relative viability of 1.07.
For HOP-62, the relative viability was 0.97.
HCC-44 showed a relative viability of 1.03.
Work on A549 yielded a relative viability of 0.928.
LU99A showed a relative viability of 0.858.
In the case of BEN, the relative viability is reported as 0.66.
With HARA the relative viability was 0.634.
Cell Line HCC-78 has a relative viability of 0.941.
Work on NCI-H1395 yielded a relative viability of 1.14.
In the case of NCI-H1299, the relative viability is reported as 1.02.
NCI-H1793 gave a relative viability of 0.749.
Work on NCI-H1563 yielded a relative viability of 0.889.

Same assay, conditions: first compound 3.162 µM
NCI-H727 showed a relative viability of 0.905.
For NCI-H1650, the relative viability was 0.69.
EBC-1 gave a relative viability of 0.217.
Work on NCI-H1703 yielded a relative viability of 1.31.
Cell Line NCI-H1993 has a relative viability of 0.856.
With SW 1573 the relative viability was 0.988.
NCI-H838 gave a relative viability of 1.03.
Cell Line NCI-H520 has a relative viability of 0.464.
Cell Line NCI-H2126 has a relative viability of 0.783.
For EMC-BAC-2, the relative viability was 0.743.
For NCI-H2085, the relative viability was 0.48.
Calu-6 showed a relative viability of 0.627.
HCC-366 gave a relative viability of 0.927.
With NCI-H1666 the relative viability was 0.335.
In the case of NCI-H596, the relative viability is reported as 0.884.
For LK-2, the relative viability was 0.536.
Work on NCI-H2087 yielded a relative viability of 0.897.
SK-MES-1 gave a relative viability of 0.541.
H3255 was tested, and the relative viability was 0.234.
COR-L23 was tested, and the relative viability was 0.586.
COR-L 105 showed a relative viability of 0.361.
With IA-LM the relative viability was 0.787.
Cell Line LOU-NH91 has a relative viability of 0.581.
With NCI-H2170 the relative viability was 0.258.
Cell Line NCI-H2405 has a relative viability of 0.896.
In the case of HOP-62, the relative viability is reported as 0.974.
Work on HCC-44 yielded a relative viability of 0.996.
In the case of A549, the relative viability is reported as 0.428.
In the case of LU99A, the relative viability is reported as 0.71.
BEN was tested, and the relative viability was 0.519.
HARA showed a relative viability of 0.661.
With HCC-78 the relative viability was 0.744.
Cell Line NCI-H1395 has a relative viability of 0.816.
NCI-H1299 gave a relative viability of 1.
Cell Line NCI-H1793 has a relative viability of 0.861.
Work on NCI-H1563 yielded a relative viability of 0.944.

These cell lines were tested with C1CSC2=C(C(=O)N1)SC3=C2C=C(C=C3)O [kb NB 142-70] + CC(=O)c1c(C)c2cnc(Nc3ccc(N4CCNCC4)cn3)nc2n(C2CCCC2)c1=O [Palbociclib] (partner 0.5 µM) in the same assay as above. Details: first compound 0.1 µM.
Procedure, shortened: as §1
In the case of NCI-H2342, the relative viability is reported as 0.547.
For NCI-H727, the relative viability was 0.681.
In the case of NCI-H1650, the relative viability is reported as 0.362.
For NCI-H1993, the relative viability was 0.688.
For SW 1573, the relative viability was 0.418.
NCI-H838 showed a relative viability of 0.203.
LCLC-103H was tested, and the relative viability was 0.47.
For NCI-H520, the relative viability was 0.234.
NCI-H2126 was tested, and the relative viability was 0.364.
In the case of EMC-BAC-2, the relative viability is reported as 0.524.
In the case of NCI-H2085, the relative viability is reported as 0.466.
Cell Line HCC-366 has a relative viability of 0.404.
NCI-H1666 showed a relative viability of 0.581.
Cell Line LK-2 has a relative viability of 0.661.
NCI-H2087 gave a relative viability of 0.282.
NCI-H1648 was tested, and the relative viability was 0.276.
In the case of SK-MES-1, the relative viability is reported as 0.343.
Cell Line H3255 has a relative viability of 0.323.
COR-L23 gave a relative viability of 0.324.
COR-L 105 gave a relative viability of 0.432.
LOU-NH91 was tested, and the relative viability was 0.494.
ChaGo-K-1 gave a relative viability of 0.872.
With NCI-H2170 the relative viability was 0.413.
NCI-H2405 was tested, and the relative viability was 0.552.
Work on HOP-62 yielded a relative viability of 0.496.
For HCC-44, the relative viability was 0.96.
In the case of NCI-H522, the relative viability is reported as 0.988.
With LU99A the relative viability was 0.379.
BEN was tested, and the relative viability was 0.443.
For HARA, the relative viability was 0.216.
In the case of SW 900, the relative viability is reported as 0.553.
In the case of HCC-78, the relative viability is reported as 0.446.
For NCI-H441, the relative viability was 0.237.
With NCI-H1395 the relative viability was 0.582.
Cell Line NCI-H1793 has a relative viability of 0.301.

Same assay, conditions: first compound 1 µM
NCI-H2342 was tested, and the relative viability was 0.497.
NCI-H727 showed a relative viability of 0.653.
In the case of NCI-H1650, the relative viability is reported as 0.39.
In the case of NCI-H1993, the relative viability is reported as 0.583.
SW 1573 gave a relative viability of 0.376.
NCI-H838 showed a relative viability of 0.219.
With LCLC-103H the relative viability was 0.475.
Cell Line NCI-H520 has a relative viability of 0.21.
NCI-H2126 gave a relative viability of 0.373.
Cell Line EMC-BAC-2 has a relative viability of 0.553.
NCI-H2085 was tested, and the relative viability was 0.452.
